Reference: US9868746B2, “Substituted 5-aminothieno[2,3-C]pyridazine-6-carboxamide analogs as positive allosteric modulators of the muscarinic acetylcholine receptor M4” (Vanderbilt University, priority 2012, dated 2018)

Molecular target: T1, mAChR M4 (Homo sapiens, UniProt P08173)
T1 construct: expressed in transfected cells; host or cells: CHO-K1 cells stably transfected with M4 cDNA and chimeric G-protein Gqi5
T1 sequence (P08173 1-479): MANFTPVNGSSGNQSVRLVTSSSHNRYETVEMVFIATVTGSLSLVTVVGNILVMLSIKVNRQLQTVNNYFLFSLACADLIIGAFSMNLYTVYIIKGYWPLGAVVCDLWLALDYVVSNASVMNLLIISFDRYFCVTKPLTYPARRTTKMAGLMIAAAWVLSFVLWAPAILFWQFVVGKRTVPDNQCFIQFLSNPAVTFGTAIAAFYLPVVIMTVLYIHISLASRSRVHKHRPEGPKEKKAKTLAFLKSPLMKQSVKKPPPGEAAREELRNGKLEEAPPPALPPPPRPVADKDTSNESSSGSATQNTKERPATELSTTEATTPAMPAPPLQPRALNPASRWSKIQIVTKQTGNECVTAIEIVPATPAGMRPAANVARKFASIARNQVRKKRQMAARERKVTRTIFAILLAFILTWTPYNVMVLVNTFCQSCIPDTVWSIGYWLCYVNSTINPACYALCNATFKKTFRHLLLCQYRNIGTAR
Assay: mAChR M4 cell-based functional assay (calcium mobilization, potentiation of EC20 acetylcholine response)
Details: for Emax at 30 µM: % ACh maximum at 30 μM; for EC50: mAChR M4 cell-based functional assay, >10,000 estimated for low potency compounds without plateau, read-out: EC50

SMILES	Emax at 30 µM [%]	EC50 [nM]
COc1ccc([C@H]2C[C@@H]2NC(=O)c2sc3nnc(C)c(C)c3c2N)cc1 (single isomer, unassigned) [Example B31]	79	7.5
Cc1nnc2sc(C(=O)NCc3ccc(F)cn3)c(N)c2c1C [Example B509]	59	1400
Cc1nnc2sc(C(=O)NCCNC(=O)c3ccc(F)cc3)c(N)c2c1C [Example B340]	38	370
Cc1nnc2sc(C(=O)NC3CN(C(=O)OCCN(C)C)C3)c(N)c2c1C [Example B341]	74	120
COc1cccc(OC(=O)N2CC(NC(=O)c3sc4nnc(C)c(C)c4c3N)C2)c1 [Example B368]	69	12
Cc1nnc2sc(C(=O)N3CC(F)(c4cccc(-c5cccnc5)c4)C3)c(N)c2c1C [Example B321]	48	290
Cc1nnc2sc(C(=O)NCc3ccc(OCC(F)F)cc3)c(N)c2c1C [Example B176]	73	23
COc1cncc(-c2ccc(CNC(=O)c3sc4nnc(C)c(C)c4c3N)cc2)c1 [Example B488]	76	49
Cc1nnc2sc(C(=O)N3CC(NC(=O)c4ccncc4)C3)c(N)c2c1C [Example B184]	48	1900
Cc1nnc2sc(C(=O)N3CCC(NC(=O)c4ccccn4)C3)c(N)c2c1C (centres unmarked) [Example B240]	53	> 10000
COC1(C2CCCCC2)CN(C(=O)c2sc3nnc(C)c(C)c3c2N)C1 [Example B304]	43	1100
Cc1nnc2sc(C(=O)NC3CCN(c4ccncc4)C3)c(N)c2c1C (centres unmarked) [Example B266]	70	220
COC1(c2ccc(Cl)cc2)CN(C(=O)c2sc3nnc(C)c(C)c3c2N)C1 [Example B314]	49	2800
Cc1nnc2sc(C(=O)NCc3ccc(C(F)(F)F)nc3)c(N)c2c1C [Example B443]	69	120
Cc1nnc2sc(C(=O)N3CC4CN(c5ccccn5)CC4C3)c(N)c2c1C (centres unmarked) [Example B287]	58	250
COc1c(F)cc(CNC(=O)c2sc3nnc(C)c(C)c3c2N)cc1F [Example B313]	84	18
Cc1nnc2sc(C(=O)NC3CN(C(=O)Oc4cccc(N=[N+]=[N-])c4)C3)c(N)c2c1C [Example B424]	68	7.9
COc1ccc(NC(=O)N2CC(NC(=O)c3sc4nnc(C)c(C)c4c3N)C2)cc1 [Example B371]	61	48
COc1ccccc1OC(=O)N1CC(NC(=O)c2sc3nnc(C)c(C)c3c2N)C1 [Example B376]	59	17
Cc1nnc2sc(C(=O)N3CC(NCCC(C)C)C3)c(N)c2c1C [Example B63]	41	> 10000
Cc1nnc2sc(C(=O)Nc3ccccn3)c(N)c2c1C [Example B36]	29	1700
COc1ccccc1C(=O)N1CC(NC(=O)c2sc3nnc(C)c(C)c3c2N)C1 [Example B397]	64	430
CC(=O)N1CC(NC(=O)c2sc3nnc(C)c(C)c3c2N)C1 [Example B134]	67	520
COc1ncc(CNC(=O)c2sc3nnc(C)c(C)c3c2N)cc1F [Example B439]	78	25
Cc1nnc2sc(C(=O)N3CC(NC(=O)CCc4ccccc4)C3)c(N)c2c1C [Example B177]	53	970

SMILES	Emax at 30 µM [%]	EC50 [nM]
Cc1nnc2sc(C(=O)NCc3ccc(O)cc3)c(N)c2c1C [Example B95]	66	47
COc1ccc(CNC(=O)c2sc3nnc(-c4ccccc4)c(-c4ccccc4)c3c2N)cc1 [Example B40]	47	2700
Cc1nnc2sc(C(=O)N3CC(NCc4ccncc4)C3)c(N)c2c1C [Example B60]	41	> 10000
Cc1nnc2sc(C(=O)NCc3ccc4c(cnn4C)c3)c(N)c2c1C [Example B251]	79	190
Cc1nnc2sc(C(=O)NC3CN(C(=O)CCc4ccccc4)C3)c(N)c2c1C [Example B129]	80	110
Cc1nnc2sc(C(=O)N3CC(S(=O)(=O)c4ccccc4)C3)c(N)c2c1C [Example B413]	54	350
COc1ccc(CNC(=O)c2sc3nnc(C)c(C)c3c2N)cc1Br [Example B482]	67	87
Cc1nnc2sc(C(=O)N3CC(F)(c4ccccc4)C3)c(N)c2c1C [Example B173]	56	170
Cc1nnc2sc(C(=O)NC3CN(C(=O)Oc4ccc(C(C)C)cc4)C3)c(N)c2c1C [Example B348]	72	54
COc1cccc(C(=O)N2CCC(NC(=O)c3sc4nnc(C)c(C)c4c3N)C2)c1 (centres unmarked) [Example B231]	78	230
Cc1nnc2sc(C(=O)NCc3ccc(C#N)c(F)c3)c(N)c2c1C [Example B451]	66	340
CS(=O)(=O)c1ccc(CNC(=O)c2sc3nnc(-c4ccccc4)c(-c4ccccc4)c3c2N)cc1 [Example B41]	48	> 10000
Cc1nnc2sc(C(=O)NC3CCN(C(=O)c4cccs4)C3)c(N)c2c1C (centres unmarked) [Example B200]	74	91
Cc1nnc2sc(C(=O)NC3CN(c4nc5ccccc5o4)C3)c(N)c2c1C [Example B425]	74	28
Cc1nnc2sc(C(=O)NCc3ccc(Br)cc3)c(N)c2c1C [Example B448, 5-amino-N-(4-bromobenzyl)-3,4-dimethylthieno[2,3-c]pyridazine-6-carboxamide]	75	18
Cc1nnc2sc(C(=O)N3CC(F)(c4ccc(-c5cncnc5)cc4)C3)c(N)c2c1C [Example B326]	50	390
Cc1nnc2sc(C(=O)NC3CCN(C(=O)Cc4ccccc4)C3)c(N)c2c1C (centres unmarked) [Example B235]	72	360
Cc1nnc2sc(C(=O)NC3CN(S(=O)(=O)c4ccc5ncccc5c4)C3)c(N)c2c1C [Example B141]	92	85
Cc1nnc2sc(C(=O)NC3C4CC5CC(C4)CC3C5)c(N)c2c1C (centres unmarked) [Example B281]	62	2000
Cc1nnc2sc(C(=O)N3CC(NC(=O)C4CC4)C3)c(N)c2c1C [Example B166]	41	3100
Cc1nnc2sc(C(=O)NC3CCN(C(=O)CCc4ccccc4)C3)c(N)c2c1C (centres unmarked) [Example B221]	72	1300
Cc1nnc2sc(C(=O)NCc3ccc(F)c(S(C)(=O)=O)c3)c(N)c2c1C [Example B78]	63	230
Cc1nnc2sc(C(=O)NC3CN(c4ccccc4)C3)c(N)c2c1C [Example B481]	62	12
Nc1c(C(=O)NCc2cccc(F)c2F)sc2nnccc12 [Example B18]	60	> 10000
